Measured values taken from patent US11040976B2, “Substrate selective inhibitors of insulin-degrading enzyme (IDE) and uses thereof” (President and Fellows of Harvard College, priority 2015, dated 2021).

Experiments:
[1] = target: T1, Human N-His6-IDE42-1019 (E. coli expressed) (Homo sapiens, UniProt P14735); assay: Fluorescence anisotropy high-throughput screening assay (displacement of probe FL-6b); type: binding
T1 construct: Human N-His6-IDE42-1019 (E. coli expressed); made in house; host or cells: E. coli (Rosetta 2 (DE3) pLysS, plasmid pTrcHis-A)
T1 sequence (P14735 42-1019): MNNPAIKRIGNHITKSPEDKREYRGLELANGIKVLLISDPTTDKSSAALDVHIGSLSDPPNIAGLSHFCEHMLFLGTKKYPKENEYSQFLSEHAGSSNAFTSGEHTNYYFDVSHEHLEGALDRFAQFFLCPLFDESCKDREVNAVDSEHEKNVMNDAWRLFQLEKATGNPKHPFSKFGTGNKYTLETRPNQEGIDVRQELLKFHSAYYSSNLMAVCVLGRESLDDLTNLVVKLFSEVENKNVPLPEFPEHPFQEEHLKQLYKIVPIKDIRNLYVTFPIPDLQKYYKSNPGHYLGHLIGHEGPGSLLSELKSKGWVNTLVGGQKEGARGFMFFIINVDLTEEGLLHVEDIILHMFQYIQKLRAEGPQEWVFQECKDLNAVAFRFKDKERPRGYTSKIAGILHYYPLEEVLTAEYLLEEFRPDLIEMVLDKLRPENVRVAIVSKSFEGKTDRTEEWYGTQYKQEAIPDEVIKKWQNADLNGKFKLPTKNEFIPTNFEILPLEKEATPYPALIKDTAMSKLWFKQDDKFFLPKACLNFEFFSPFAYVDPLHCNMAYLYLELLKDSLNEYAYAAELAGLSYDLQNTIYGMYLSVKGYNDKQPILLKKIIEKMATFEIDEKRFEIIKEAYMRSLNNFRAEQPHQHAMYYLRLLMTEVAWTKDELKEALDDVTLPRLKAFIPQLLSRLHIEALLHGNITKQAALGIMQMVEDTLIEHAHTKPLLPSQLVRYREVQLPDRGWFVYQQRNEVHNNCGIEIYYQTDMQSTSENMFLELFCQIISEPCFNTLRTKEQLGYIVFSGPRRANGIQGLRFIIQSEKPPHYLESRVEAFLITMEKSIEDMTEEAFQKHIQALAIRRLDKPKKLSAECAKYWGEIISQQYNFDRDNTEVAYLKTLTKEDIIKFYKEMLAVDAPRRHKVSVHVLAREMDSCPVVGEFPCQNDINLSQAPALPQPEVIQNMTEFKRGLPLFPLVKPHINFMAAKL
Description: The fluorescence anisotropy screening method and probe FL-6b are described in PCT application PCT/US2014/064322, incorporated herein by reference.
Human N-His6-IDE42-1019 (E. coli expressed) was mixed with fluorescein-labeled macrocycle FL-6b:
[drawing 802] in 50 mM Tris buffer pH 8.0, with 1 M NaCl, at 25° C. Optimum signal was obtained using a mixture of […] probe FL-6b and 0.5 μM IDE. The “diversity-oriented (DOS) synthesis informer set” compound plates were pinned onto 384-well plates containing the enzyme-probe mixture (50 μL/well). The azetidine screen was pre-printed on 384-well plates and the enzyme-probe mixture was added (50 μL/well). The final compound concentration was 20 μM. IDE inhibitor 6bK was used as a positive control at a final concentration of 1 μM. After 30 minutes of equilibration, the increase in fluorescence anisotropy was recorded using an EnVision spectrophotometer (excitation 492 nm, emission 523 nm). The fluorescence anisotropy was independently measured twice for each screened compound. The Z-scores for each pair of measurements are plotted in FIG. 1A (DOS informer set) and FIG. 1B (azetidines), and average Z-scores are listed for exemplary compounds in Table E1.
Z-scores were calculated based on the raw anisotropy measured for each well according to Eq. 1, wherein x is the raw anisotropy value of the well, μ is the mean of the anisotropy of the negative control wells (DMSO) for the plate, and σ is the standard deviation in anisotropy of the negative control wells (DMSO) for the plate.

[2] = target: T2, recombinant human IDE42-1019 (Homo sapiens, UniProt P14735); assay: Protease assay with fluorogenic peptide substrate Mca-[…](Dnp)-OH; type: biochemical; conditions: fluorogenic peptide Mca-RPPGFSAFK(Dnp)-OH; for IC50: apparent IC50 for compounds with submaximal inhibition, read-out: IC50 (μM) Proteolysis; for Emax: plateau at high inhibitor concentration, read-out: Imax (%) Proteolysis (inhibition maximum)
T2 construct: recombinant human IDE42-1019 (R&D Systems); purchased R&D Systems
T2 sequence (P14735 42-1019): T1 sequence (P14735 42-1019)

[3] = final compound concentration 20 μM (6bK control 1 μM), values without asterisk

| Structure (SMILES) | Average Z-score (Fluorescence anisotropy) [1, 3] | IC50 [2] [µM] | Emax [2] [%] | Average Z-score (Fluorescence anisotropy) ([1]; values marked *: from the screen using the diversity-oriented synthesis (DOS) informer set of plates, 20 μM) |
| --- | --- | --- | --- | --- |
| COc1cccc(-c2ccc([C@@H]3[C@@H](CO)N4CCCCN(C(=O)Nc5ccncc5)C[C@@H]34)cc2)c1 [compound 433] | −2.37 | > 100 | – | – |
| COc1ccccc1-c1ccc([C@H]2[C@@H](CO)N3CCCCN(C(=O)NC4CCCC4)C[C@H]23)cc1 [compound 439] | −19.08 | 2.5 | 50 | – |
| Cc1cccc(-c2ccc([C@@H]3[C@@H](CO)N4CCCCN(C(=O)c5cccnc5)C[C@@H]34)cc2)c1 [compound 443] | −3.13 | > 100 | – | – |
| O=C(c1ccccn1)N1CC(=O)N2[C@@H](CO)[C@@H](c3ccc(C#Cc4ccccc4)cc3)[C@@H]2C1 [compound 479] | −19.91 | < 10 | ~100 | – |
| Cc1ccccc1-c1ccc([C@H]2[C@H](CO)N3C(=O)CN(C(=O)c4cccnc4)C[C@@H]23)cc1 [compound 491] | −12.38 | > 10 | 70 | – |
| Cc1cccc(-c2ccc([C@@H]3[C@@H](CO)N4CCCCN(S(=O)(=O)c5cccc(C)c5)C[C@@H]34)cc2)c1 [compound 496] | −9.77 | 2.5 | 30 | – |
| Cc1ccccc1-c1ccc([C@H]2[C@@H](CO)N3C(=O)CN(C(=O)Nc4ccc(F)cc4)C[C@H]23)cc1 [compound 510] | −21.34 | 0.5 | 30 | – |
| OC[C@H]1[C@@H](c2ccc(C#Cc3ccccc3)cc2)[C@@H]2CN(Cc3cncnc3)CCCCN12 [compound 525] | −16.2 | < 10 | ~100 | – |
| COc1ccc(NC(=O)N2CCCCN3[C@H](CO)[C@H](c4ccc(-c5ccccc5C)cc4)[C@@H]3C2)cc1 [compound 529] | −0.82 | – | 30 | – |
| Cc1ccccc1-c1ccc([C@H]2[C@H](CO)N3C(=O)CN(C(=O)Nc4cccc(F)c4)C[C@@H]23)cc1 [compound 534] | −3.03 | 7 | 70 | – |
| COC(=O)N1CCCCN2[C@H](CO)[C@@H](c3ccc(-c4cccc(C)c4)cc3)[C@@H]2C1 [compound 559] | −5.28 | > 100 | – | – |
| CCCCC(=O)N1CC(=O)N2[C@@H](CO)[C@@H](c3ccc(C#Cc4cccc(OC)c4)cc3)[C@@H]2C1 [compound 564] | −1.33 | > 100 | – | – |
| Cc1ccccc1-c1ccc([C@H]2[C@H](CO)N3C(=O)CN(C(=O)c4ccncc4)C[C@@H]23)cc1 [compound 580] | −7.49 | – | 70 | – |
| Cc1ccccc1-c1ccc([C@@H]2[C@@H](CO)N3C(=O)CN(S(C)(=O)=O)C[C@@H]23)cc1 [compound 585] | – | 2.5 | 40 | −12.65* |
| COc1ccccc1-c1ccc([C@H]2[C@@H](CO)N3CCCCN(C(=O)c4ccncc4)C[C@H]23)cc1 [compound 586] | −17.17 | 7 | 70 | – |
| COc1cccc(C#Cc2ccc([C@@H]3[C@H](CO)N4C(=O)CN(C(C)=O)C[C@@H]34)cc2)c1 [compound 608] | −15.34 | < 10 | ~100 | – |
| Cc1cccc(-c2ccc([C@@H]3[C@@H](CO)N4C(=O)CN(C(=O)c5cnccn5)C[C@@H]34)cc2)c1 [compound 653] | −17.51 | – | 90 | – |
| Cc1cccc(-c2ccc([C@@H]3[C@@H](CO)N4CCCCN(Cc5cncnc5)C[C@@H]34)cc2)c1 [compound 654] | −6.65 | > 100 | – | – |

| Structure (SMILES) | Average Z-score (Fluorescence anisotropy) [1, 3] | IC50 [2] [µM] | Emax [2] [%] | Average Z-score (Fluorescence anisotropy) ([1]; values marked *: from the screen using the diversity-oriented synthesis (DOS) informer set of plates, 20 μM) |
| --- | --- | --- | --- | --- |
| Cc1ccccc1-c1ccc([C@H]2[C@@H](CO)N3CCCCN(C(=O)c4cccnc4)C[C@@H]23)cc1 [compound 712] | −4.78 | > 100 | – | – |
| Cc1ccccc1-c1ccc([C@H]2[C@@H](CO)N3CCCCN(S(=O)(=O)c4cn(C)cn4)C[C@H]23)cc1 [compound 736] | −16.6 | 2.5 | 35 | – |
| Cc1ccccc1-c1ccc([C@@H]2[C@H]3CN(C(=O)c4cccnc4)CC(=O)N3[C@H]2CO)cc1 [compound 745] | −19.67 | 2.5 | 70 | – |
| Cc1ccccc1-c1ccc([C@H]2[C@@H](CO)N3CCCCN(CC4CC4)C[C@@H]23)cc1 [compound 768] | −3.48 | > 100 | – | – |
| Cc1cccc(-c2ccc([C@@H]3[C@@H](CO)N4CCCCN(C(=O)NC(C)C)C[C@@H]34)cc2)c1 [compound 777] | −5.51 | – | 30 | – |
| Cc1cccc(-c2ccc([C@@H]3[C@H](CO)N4CCCCN(S(=O)(=O)c5cn(C)cn5)C[C@@H]34)cc2)c1 [compound 795] | −19.52 | – | 40 | – |
| Cc1ccccc1-c1ccc([C@H]2[C@@H](CO)N3C(=O)CN(C(=O)Cc4ccccn4)C[C@@H]23)cc1 [compound 805] | −17.31 | 2.5 | 70 | – |
| Cc1cccc(-c2ccc([C@H]3[C@@H](CO)N4CCCCN(C(=O)c5ccncc5)C[C@H]34)cc2)c1 [compound 836] | −18.28 | – | 60 | – |
| Cc1cccc(-c2ccc([C@@H]3[C@@H](CO)N4CCCCN(CC5CC5)C[C@@H]34)cc2)c1 [compound 837] | −2.88 | > 100 | – | – |
| Cc1cccc(-c2ccc([C@@H]3[C@H]4CN(C(=O)c5cccnc5)CC(=O)N4[C@H]3CO)cc2)c1 [compound 838] | −17.68 | – | 80 | – |
| Cc1ccccc1-c1ccc([C@@H]2[C@H]3CN(S(=O)(=O)c4cn(C)cn4)CCCCN3[C@H]2CO)cc1 [compound 868] | −18.53 | 2.5 | 40 | – |
| Cc1ccccc1-c1ccc([C@H]2[C@@H](CO)N3CCCCN(C(=O)Cc4ccccn4)C[C@@H]23)cc1 [compound 890] | −5.69 | > 100 | – | – |
| Cc1cccc(-c2ccc([C@@H]3[C@@H](CO)N4C(=O)CN(C(=O)NC5CCCCC5)C[C@@H]34)cc2)c1 [compound 904] | −16.59 | > 5 | – | – |
| Cc1ccccc1-c1ccc([C@@H]2[C@H](CO)N3CCCCN(C(=O)NC4CCCC4)C[C@@H]23)cc1 [compound 932] | −19.01 | > 20 | 90 | – |
| Cc1cccc(-c2ccc([C@@H]3[C@@H](CO)N4CCCCN(S(=O)(=O)c5cccs5)C[C@@H]34)cc2)c1 [compound 945] | −3.77 | – | 30 | – |
| Cc1cccc(-c2ccc([C@H]3[C@@H](CO)N4CCCCN(Cc5cccnc5)C[C@H]34)cc2)c1 [compound 959] | −6.79 | > 60 | – | – |
| CCS(=O)(=O)N1CCCCN2[C@@H](CO)[C@@H](c3ccc(C#Cc4ccccc4OC)cc3)[C@@H]2C1 [compound 964] | −19.69 | 2.5 | 90 | – |
